1 compound from ChEMBL document CHEMBL5344446, “Constituents from the Polar Extract of Pisolithus arhizus and Their Anti-inflammatory Activity” (J Nat Prod, 2024) can be followed below.

For data set [1], the system named is THP-1. As to the kind of experiment: Downregulation of pSTAT3 protein expression in LPS-induced PMA-differentiated human THP-1 cells at […] pretreated with LPS for 3 hrs followed by compound addition and measured after 6 hrs by Western blot analysis. In kind it is functional, cell-based. To be noted: dose lower 25.0 mg/ml.
Data set [2] concerns THP-1. In words: Cytotoxicity against PMA-differentiated human THP-1 cells assessed as reduction in cell viability at 25 to 100 ug/ml measured after 24 hrs by MTT assay. In kind it is toxicity, cell-based. To be noted: thp-1, 24 h, dose 25-100 µg/ml.
In data set [3] the test system is THP-1. As to the kind of experiment: Antiinflammatory activity in PMA-differentiated human THP-1 cells assessed as reduction in LPS-induced IL-6 secretion at 25 to 30 ug/ml pretreated with LPS for 3 hrs followed by compound addition and measured after 6 hrs by ELISA. To be noted: dose 25-30 µg/ml. In kind it is functional, cell-based.

Activity calls are given as the source filed them. The calls are words filed in the database; no cut-off is given here.

Regarding `O=C1O/C(=C(/C(=O)O)c2ccc(O)cc2)C(O)=C1c1ccc2c(O)c(O)cc(C3=C(O)/C(=C(\C(=O)O)c4ccc(O)cc4)OC3=O)c2c1`, the result in the data set on THP-1 [1] and in the data set on THP-1 [3] was Active. Also, in the data set on THP-1 [2], the Activity result is given as “Non-Toxic”.
